# Results taken from ChEMBL document CHEMBL4376804, “Review of Transient Receptor Potential Canonical (TRPC5) Channel Modulators and Diseases” (J Med Chem, 2019).
# Tests used:
# Type in all cases: cell-based
# [1] = target: Short transient receptor potential channel 7 (Homo sapiens, UniProt Q9HCX4); test: Inhibition of human TRPC7 expressed in HEK293 cells assessed as reduction in OAG-induced calcium influx after 10 mins by fluo-4/AM dye based FLIPR assay
# [2] = target: T1, Short transient receptor potential channel 5 (Mus musculus, UniProt Q9QX29); test: Inhibition of mouse TRPC5 expressed in thapsigargin treated HEK293/TREx cells assessed as reduction in intracellular calcium level in presence of GPCR agonist by fluorescence method
# T1 sequence (Q9QX29 whole entry): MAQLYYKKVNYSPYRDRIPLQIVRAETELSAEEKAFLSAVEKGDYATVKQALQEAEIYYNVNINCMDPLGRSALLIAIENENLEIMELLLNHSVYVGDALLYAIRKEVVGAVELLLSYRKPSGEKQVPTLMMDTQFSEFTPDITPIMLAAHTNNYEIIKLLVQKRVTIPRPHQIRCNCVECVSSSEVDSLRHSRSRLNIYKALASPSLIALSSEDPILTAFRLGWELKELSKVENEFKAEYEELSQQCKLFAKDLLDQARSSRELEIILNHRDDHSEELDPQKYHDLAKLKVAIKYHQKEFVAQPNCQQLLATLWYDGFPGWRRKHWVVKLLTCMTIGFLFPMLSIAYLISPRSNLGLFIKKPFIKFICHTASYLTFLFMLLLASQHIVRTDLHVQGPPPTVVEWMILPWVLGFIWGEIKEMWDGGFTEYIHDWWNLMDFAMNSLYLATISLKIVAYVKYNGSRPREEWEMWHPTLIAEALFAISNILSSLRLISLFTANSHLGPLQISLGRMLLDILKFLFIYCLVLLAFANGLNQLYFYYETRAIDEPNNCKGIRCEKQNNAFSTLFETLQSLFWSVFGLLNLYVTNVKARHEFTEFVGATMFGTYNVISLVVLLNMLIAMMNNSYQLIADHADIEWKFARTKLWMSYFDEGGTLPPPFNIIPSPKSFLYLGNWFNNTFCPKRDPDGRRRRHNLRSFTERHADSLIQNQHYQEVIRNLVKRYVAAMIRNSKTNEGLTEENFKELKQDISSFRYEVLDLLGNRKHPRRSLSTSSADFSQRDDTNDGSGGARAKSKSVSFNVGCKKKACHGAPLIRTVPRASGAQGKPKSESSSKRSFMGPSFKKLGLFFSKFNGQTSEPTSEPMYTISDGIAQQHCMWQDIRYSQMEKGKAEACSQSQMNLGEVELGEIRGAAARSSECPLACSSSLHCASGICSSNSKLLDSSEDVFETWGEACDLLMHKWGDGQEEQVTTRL
# [3] = target: T2, Short transient receptor potential channel 6 (Homo sapiens, UniProt Q9Y210); test: Inhibition of YFP-tagged human TRPC6 expressed in thapsigargin treated HEK293 cells assessed as reduction in amix-induced calcium level by fluo-4 dye based fluorescence assay
# T2 sequence (Q9Y210 whole entry): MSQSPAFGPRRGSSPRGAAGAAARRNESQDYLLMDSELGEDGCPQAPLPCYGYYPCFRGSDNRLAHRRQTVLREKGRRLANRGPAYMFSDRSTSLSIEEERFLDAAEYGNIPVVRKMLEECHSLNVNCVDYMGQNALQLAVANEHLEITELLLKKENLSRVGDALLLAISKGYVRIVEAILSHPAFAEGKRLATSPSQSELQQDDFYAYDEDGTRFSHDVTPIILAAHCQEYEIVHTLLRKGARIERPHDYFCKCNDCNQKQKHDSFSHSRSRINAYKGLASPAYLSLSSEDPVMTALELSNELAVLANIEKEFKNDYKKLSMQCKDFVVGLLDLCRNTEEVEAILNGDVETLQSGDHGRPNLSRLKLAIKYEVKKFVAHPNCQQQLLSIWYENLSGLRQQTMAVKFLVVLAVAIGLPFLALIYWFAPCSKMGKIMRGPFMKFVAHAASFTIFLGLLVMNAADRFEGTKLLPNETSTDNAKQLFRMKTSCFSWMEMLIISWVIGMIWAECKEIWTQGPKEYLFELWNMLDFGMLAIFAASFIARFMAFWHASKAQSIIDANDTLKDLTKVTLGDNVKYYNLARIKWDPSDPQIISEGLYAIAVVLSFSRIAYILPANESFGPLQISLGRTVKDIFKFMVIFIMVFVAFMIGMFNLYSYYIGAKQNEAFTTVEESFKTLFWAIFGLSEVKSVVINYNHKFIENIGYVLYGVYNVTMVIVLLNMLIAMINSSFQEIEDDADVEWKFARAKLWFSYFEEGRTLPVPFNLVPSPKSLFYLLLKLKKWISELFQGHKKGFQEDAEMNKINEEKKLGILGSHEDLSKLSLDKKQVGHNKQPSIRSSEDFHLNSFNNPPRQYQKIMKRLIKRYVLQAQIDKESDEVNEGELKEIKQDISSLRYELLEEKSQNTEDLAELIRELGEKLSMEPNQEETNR
# [4] = target: Heat sensitive channel TRPV3 (Rattus norvegicus, UniProt Q4QYD9); test: Inhibition of YFP-tagged rat TRPV3 expressed in HEK293 cells assessed as reduction in calcium level by fluo-4 dye based fluorescence assay
# Chain of Heat sensitive channel TRPV3 (Q4QYD9 whole entry): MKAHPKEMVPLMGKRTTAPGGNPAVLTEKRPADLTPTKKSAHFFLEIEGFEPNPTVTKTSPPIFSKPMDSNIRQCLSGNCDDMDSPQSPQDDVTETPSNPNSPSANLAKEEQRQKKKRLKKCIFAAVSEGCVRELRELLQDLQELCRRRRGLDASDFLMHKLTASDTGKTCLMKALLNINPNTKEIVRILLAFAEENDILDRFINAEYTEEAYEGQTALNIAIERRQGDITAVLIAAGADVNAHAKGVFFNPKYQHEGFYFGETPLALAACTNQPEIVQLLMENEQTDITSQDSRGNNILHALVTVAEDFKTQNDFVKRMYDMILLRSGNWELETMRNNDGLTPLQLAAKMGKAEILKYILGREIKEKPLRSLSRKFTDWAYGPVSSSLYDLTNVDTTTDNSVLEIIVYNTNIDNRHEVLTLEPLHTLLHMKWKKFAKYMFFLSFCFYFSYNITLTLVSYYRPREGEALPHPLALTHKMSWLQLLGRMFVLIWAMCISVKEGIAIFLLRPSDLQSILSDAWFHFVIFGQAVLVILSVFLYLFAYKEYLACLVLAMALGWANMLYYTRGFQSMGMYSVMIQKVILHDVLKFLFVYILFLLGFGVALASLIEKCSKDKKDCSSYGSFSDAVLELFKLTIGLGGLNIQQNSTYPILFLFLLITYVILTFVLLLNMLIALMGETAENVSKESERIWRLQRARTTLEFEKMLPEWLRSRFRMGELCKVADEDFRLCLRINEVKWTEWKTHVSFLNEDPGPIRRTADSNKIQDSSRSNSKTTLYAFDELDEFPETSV
# [5] = Selectivity ratio of IC50 for YFP-tagged human TRPC6 expressed in thapsigargin treated HEK293 cells to IC50 for mouse TRPC5 expressed in thapsigargin treated HEK293/TREx cells
# Chain of Short transient receptor potential channel 7 (Q9HCX4 whole entry): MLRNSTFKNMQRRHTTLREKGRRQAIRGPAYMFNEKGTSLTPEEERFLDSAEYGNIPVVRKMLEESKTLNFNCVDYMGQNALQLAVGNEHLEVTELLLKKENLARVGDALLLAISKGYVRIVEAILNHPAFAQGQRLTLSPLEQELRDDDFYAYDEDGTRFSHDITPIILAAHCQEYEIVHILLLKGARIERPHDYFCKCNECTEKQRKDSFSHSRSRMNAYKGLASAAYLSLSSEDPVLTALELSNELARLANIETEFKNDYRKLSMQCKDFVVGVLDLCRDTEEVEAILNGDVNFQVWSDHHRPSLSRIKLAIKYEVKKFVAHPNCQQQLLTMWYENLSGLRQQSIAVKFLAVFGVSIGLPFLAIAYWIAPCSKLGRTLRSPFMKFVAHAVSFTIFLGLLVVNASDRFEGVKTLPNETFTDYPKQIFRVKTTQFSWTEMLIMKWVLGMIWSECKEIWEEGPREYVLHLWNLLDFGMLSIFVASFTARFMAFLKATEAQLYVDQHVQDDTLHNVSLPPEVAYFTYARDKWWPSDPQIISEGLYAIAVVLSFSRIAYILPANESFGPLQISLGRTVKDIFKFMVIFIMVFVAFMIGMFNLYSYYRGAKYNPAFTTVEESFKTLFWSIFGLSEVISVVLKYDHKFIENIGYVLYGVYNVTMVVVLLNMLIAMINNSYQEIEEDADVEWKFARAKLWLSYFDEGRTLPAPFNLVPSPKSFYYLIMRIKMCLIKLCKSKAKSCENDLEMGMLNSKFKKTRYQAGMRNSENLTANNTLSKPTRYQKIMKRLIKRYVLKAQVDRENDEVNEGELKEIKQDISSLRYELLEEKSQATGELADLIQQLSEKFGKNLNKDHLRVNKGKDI
Compound,IC50 [1] [µM],IC50 [2] [µM],IC50 [3] [µM],IC50 [4] [µM],Ratio IC50 [5]
N#Cc1ccc(O[C@@H]2c3ccccc3C[C@H]2N2CCC[C@@H](N)C2)c(Cl)c1,0.226,,,,
Clc1ccc(Cn2c(CN3CCCC3)nc3ccccc32)cc1 [CLEMIZOLE],,1.1,11.3,> 20,10
